# Laboratory results: patent publication US10583154B2, “Multi-dose compositions containing an antimicrobial polyamide or octenidine preservative” (priority 2016, dated 2020)
# What was measured:
# [1] = test system: Pseudomonas aeruginosa; test: Antimicrobial preservative efficacy test (dilution neutralization), preservative as WFI solution; assay type: cell-based
# Text: (§1) Preservatives are commonly used in multi-dose formulations, including animal vaccines, to prevent bacterial or fungal growth in field conditions and are employed to minimize contamination of the formulations during repeated (non-sterile) punctures into the vial. Preservatives must pass antimicrobial effectiveness testing (AET), as described in the US pharmacopeia. As disclosed herein, Applicants performed the antimicrobial tests according to United States Pharmacopeia (USP), British Pharmacopeia (BP), and European Pharmocopeia (EP). Four test organisms were used: Candida albicans, Pseudomonas aeruginosa, Staphylococcus aureus, and A. brasiliensis. And while thimerosal and formol continue to play an important role in veterinary vaccines, European authorities encourage the development of vaccines that are free from those compounds.
# (§2) For each concentration of polyamide polymer, dilution neutralization was carried out by inoculating 10 mL of test product with 100 μL of each test strain. Countings were performed at Do, 6 h (bacteria only), 24 h (bacteria only), D7, D14 and D28. For each counting, 1 mL of the sample was neutralized in 9 mL of neutralizing solution (10 minutes), for S. aureus, a second 1:10 dilution in the same solution. Then 1 mL of the mixture was transferred in Petri dishes and covered with 15 mL of agar medium (Trypcase Soy Agar for bacteria and Sabouraud Dextrosed Agar for yeasts and molds). The countings were achieved after 24-48 hours incubation at 32.5° C.±2.5° C. for bacteria, and 48-72 hours at 22.5° C.[…] for yeasts and molds. The test micro-organisms included Staphylococcus aureus, Pseudomonas aeruginosa, Candida albicans and Aspergillus brasiliensis. Finally, the neutralization solution contained: Tween 80 (10%), lecithin (2%), saponin (2%), sodium thiosulfate (0.5%) and buffered solution chloride. The saponin was from the bark of Quillaja saponaria.
# (§3) For each concentration of octenidine, dilution neutralization was carried out as disclosed in Example 1.
# [2] = test system: Staphylococcus aureus; test: as above; assay type: cell-based
# Text: as §1, §2, §3
# [3] = test system: S. aureus, P. aeruginosa, C. albicans, A. brasiliensis; test: Preservative efficacy in TS6 oil-in-water emulsion vaccine, overall verdict; assay type: cell-based; settings: 100 μg/ml alone; oily vaccine environment; previous experiment
# Method: as §2
# For each concentration of preservative (or preservative combination), dilution neutralization and other testing was carried out as disclosed in Example 1. The “TS6” formulation is an oil-in-water emulsion, described in U.S. Pat. No. 7,371,395 B2 (to Merial, Inc.; see especially Example 1). […]
# [4] = Solubility in buffer; assay type: physicochemical
# Method: In some embodiments, buffered solutions containing relatively lower amounts of salts, particularly including phosphate salts, are added to the immunogenic composition, or other preserved multi-dose formulation, to improve the solubility of the octenidine. This is based on Applicants' unexpected discovery that octenidine is less soluble in routinely used phosphate buffered saline (PBS). […] As such, in some embodiments, multi-dose formulations including octenidine contain less phosphate than standard PBS. Accordingly, in some embodiments, the buffer may contain for 100 L about 5 g of NaH2PO4 and about 200 g of Sodium bicarbonate (instead of standard PBS, which contains about a 20:1 ratio of Na2HPO4 to KH2PO4).
smiles,measurement,setting,value
"CCCCCCCCN=c1ccn(CCCCCCCCCCn2ccc(=NCCCCCCCC)cc2)cc1.Cl.Cl [Octenidine Dihydrochloride, Octenidine dihydrochloride]",log reduction,"[1]; 0.001 mg/mL, 6 h",3 log
same,viable count,"[1]; 0.001 mg/mL, 6 h",1.0 × 10^3
same,log reduction,"[1]; 0.001 mg/mL, 24 h",3 log
same,viable count,"[1]; 0.001 mg/mL, 24 h",1.0 × 10^4
same,log reduction,"[1]; 0.001 mg/mL, 7 d",0 log
same,viable count,"[1]; 0.001 mg/mL, 7 d",>3.3 × 10^6
same,log reduction,"[1]; 0.001 mg/mL, 14 d",0 log
same,viable count,"[1]; 0.001 mg/mL, 14 d",>3.3 × 10^6
same,log reduction,"[1]; 0.001 mg/mL, 28 d",0 log
same,viable count,"[1]; 0.001 mg/mL, 28 d",>3.3 × 10^6
same,viable count,"[1]; 0.001 mg/mL, T0",7.5 × 10^4
same,log reduction,"[1]; 0.01 mg/mL, 6 h",>5.1 log
same,viable count,"[1]; 0.01 mg/mL, 6 h",<10
same,log reduction,"[1]; 0.01 mg/mL, 24 h",>5.1 log
same,viable count,"[1]; 0.01 mg/mL, 24 h",<10
same,log reduction,"[1]; 0.01 mg/mL, 7 d",4.4 log
same,viable count,"[1]; 0.01 mg/mL, 7 d",<10
same,log reduction,"[1]; 0.01 mg/mL, 14 d",4.4 log
same,viable count,"[1]; 0.01 mg/mL, 14 d",<10
same,log reduction,"[1]; 0.01 mg/mL, 28 d",4.4 log
same,viable count,"[1]; 0.01 mg/mL, 28 d",<10
same,viable count,"[1]; 0.01 mg/mL, T0",<10
same,log reduction,"[1]; 0.1 mg/mL, 6 h",>5.1 log
same,viable count,"[1]; 0.1 mg/mL, 6 h",<10
same,log reduction,"[1]; 0.1 mg/mL, 24 h",>5.1 log
same,viable count,"[1]; 0.1 mg/mL, 24 h",<10
same,log reduction,"[1]; 0.1 mg/mL, 7 d",4.4 log
same,viable count,"[1]; 0.1 mg/mL, 7 d",50
same,log reduction,"[1]; 0.1 mg/mL, 14 d",>5.1 log
same,viable count,"[1]; 0.1 mg/mL, 14 d",<10
same,log reduction,"[1]; 0.1 mg/mL, 28 d",>5.1 log
same,viable count,"[1]; 0.1 mg/mL, 28 d",<10
same,viable count,"[1]; 0.1 mg/mL, T0",<10
same,log reduction,"[1]; 1 mg/mL, 6 h",>5.1 log
same,viable count,"[1]; 1 mg/mL, 6 h",<10
same,log reduction,"[1]; 1 mg/mL, 24 h",>5.1 log
same,viable count,"[1]; 1 mg/mL, 24 h",<10
same,log reduction,"[1]; 1 mg/mL, 7 d",>5.1 log
same,viable count,"[1]; 1 mg/mL, 7 d",<10
same,log reduction,"[1]; 1 mg/mL, 14 d",>5.1 log
same,viable count,"[1]; 1 mg/mL, 14 d",<10
same,log reduction,"[1]; 1 mg/mL, 28 d",>5.1 log
same,viable count,"[1]; 1 mg/mL, 28 d",<10
same,viable count,"[1]; 1 mg/mL, T0",<10
same,log reduction,"[2]; 0.001 mg/mL, 6 h",3.8 log
same,viable count,"[2]; 0.001 mg/mL, 6 h",1.6 × 10^2
same,log reduction,"[2]; 0.001 mg/mL, 24 h",>5 log
same,viable count,"[2]; 0.001 mg/mL, 24 h",<10
same,log reduction,"[2]; 0.001 mg/mL, 7 d",3.7 log
same,viable count,"[2]; 0.001 mg/mL, 7 d",2 × 10^2
same,log reduction,"[2]; 0.001 mg/mL, 14 d",3.9 log
same,viable count,"[2]; 0.001 mg/mL, 14 d",1.4 × 10^2
same,log reduction,"[2]; 0.001 mg/mL, 28 d",4.4 log
same,viable count,"[2]; 0.001 mg/mL, 28 d",40
same,viable count,"[2]; 0.001 mg/mL, T0",1.6 × 10^5
same,log reduction,"[2]; 0.01 mg/mL, 6 h",>5 log
same,viable count,"[2]; 0.01 mg/mL, 6 h",<10
same,log reduction,"[2]; 0.01 mg/mL, 24 h",>5 log
same,viable count,"[2]; 0.01 mg/mL, 24 h",<10
same,log reduction,"[2]; 0.01 mg/mL, 7 d",>5 log
same,viable count,"[2]; 0.01 mg/mL, 7 d",<10
same,log reduction,"[2]; 0.01 mg/mL, 14 d",>5 log
same,viable count,"[2]; 0.01 mg/mL, 14 d",<10
same,log reduction,"[2]; 0.01 mg/mL, 28 d",>5 log
same,viable count,"[2]; 0.01 mg/mL, 28 d",<10
same,viable count,"[2]; 0.01 mg/mL, T0",10
same,log reduction,"[2]; 0.1 mg/mL, 6 h",>5 log
same,viable count,"[2]; 0.1 mg/mL, 6 h",<10^2
same,log reduction,"[2]; 0.1 mg/mL, 24 h",>5 log
same,viable count,"[2]; 0.1 mg/mL, 24 h",<10^2
same,log reduction,"[2]; 0.1 mg/mL, 7 d",>5 log
same,viable count,"[2]; 0.1 mg/mL, 7 d",<10^2
same,log reduction,"[2]; 0.1 mg/mL, 14 d",>5 log
same,viable count,"[2]; 0.1 mg/mL, 14 d",<10^2
same,log reduction,"[2]; 0.1 mg/mL, 28 d",>5 log
same,viable count,"[2]; 0.1 mg/mL, 28 d",<10^2
same,viable count,"[2]; 0.1 mg/mL, T0",<10
same,log reduction,"[2]; 1 mg/mL, 6 h",>4 log
same,viable count,"[2]; 1 mg/mL, 6 h",<10^2
same,log reduction,"[2]; 1 mg/mL, 24 h",>4 log
same,viable count,"[2]; 1 mg/mL, 24 h",<10^2
same,log reduction,"[2]; 1 mg/mL, 7 d",>4 log
same,viable count,"[2]; 1 mg/mL, 7 d",<10^2
same,log reduction,"[2]; 1 mg/mL, 14 d",>4 log
same,viable count,"[2]; 1 mg/mL, 14 d",<10^2
same,log reduction,"[2]; 1 mg/mL, 28 d",>4 log
same,viable count,"[2]; 1 mg/mL, 28 d",<10^2
same,viable count,"[2]; 1 mg/mL, T0",<10^2
same,preservative efficacy,[3],did not exhibit satisfactory preservative efficacy
same,solubility,[4]; routinely used phosphate buffered saline (PBS),less soluble
same,solubility,[4]; sodium phosphate replaced with sodium bicarbonate,provided the required solubility
